# Target: T1, 1,25-dihydroxyvitamin D(3) 24-hydroxylase, mitochondrial (Homo sapiens, UniProt Q07973)
# T1 sequence (Q07973 whole entry): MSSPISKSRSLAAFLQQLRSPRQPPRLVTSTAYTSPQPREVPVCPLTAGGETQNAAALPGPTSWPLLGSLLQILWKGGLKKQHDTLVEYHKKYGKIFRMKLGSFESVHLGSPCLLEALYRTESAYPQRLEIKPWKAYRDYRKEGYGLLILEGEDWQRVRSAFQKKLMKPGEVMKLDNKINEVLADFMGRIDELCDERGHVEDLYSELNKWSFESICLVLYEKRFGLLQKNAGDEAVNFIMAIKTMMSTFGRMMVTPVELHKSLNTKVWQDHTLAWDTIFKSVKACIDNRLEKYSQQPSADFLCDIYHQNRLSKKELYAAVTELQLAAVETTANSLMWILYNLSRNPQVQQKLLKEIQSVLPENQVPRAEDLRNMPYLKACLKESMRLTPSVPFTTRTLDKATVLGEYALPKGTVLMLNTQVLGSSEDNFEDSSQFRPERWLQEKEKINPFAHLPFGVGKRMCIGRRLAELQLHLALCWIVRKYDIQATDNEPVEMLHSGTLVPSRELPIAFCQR
# Assay: Inhibition of human CYP24 hydroxylase expressed in V79 cells
structure (smiles),measurement,value
C=C1/C(=C\C=C2/CCC[C@]3(C)[C@@H](C(C)=CC(F)=S(N)(=O)c4ccccc4)CC[C@@H]23)C[C@@H](O)C[C@@H]1O (stereo partly specified),IC50,> 1000 nM
